SMILES strings stand for the structures.

For the first assay, the target named is T1, c-kit kinase enzyme (Homo sapiens, UniProt P10721).
T1 construct: c-kit (6.25 μM) (catalytic domain, N-terminal GST tagged, unphosphorylated); GST (N)
T1 sequence (P10721 589-937 limits assumed): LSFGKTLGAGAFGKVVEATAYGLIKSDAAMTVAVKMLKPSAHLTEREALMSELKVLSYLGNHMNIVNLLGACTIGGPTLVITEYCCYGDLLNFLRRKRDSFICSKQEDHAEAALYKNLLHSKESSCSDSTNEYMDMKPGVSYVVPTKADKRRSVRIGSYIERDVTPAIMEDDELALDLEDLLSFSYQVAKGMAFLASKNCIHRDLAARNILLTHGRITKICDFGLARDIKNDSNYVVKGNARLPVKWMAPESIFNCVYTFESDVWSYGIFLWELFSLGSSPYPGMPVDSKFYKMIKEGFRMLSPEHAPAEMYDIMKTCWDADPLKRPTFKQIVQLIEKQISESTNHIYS
In words: C-kit Homogeneous Time Resolved Fluorescent (HTRF) kinase assay. The following applies: read-out: average IC50 value, inhibition of the c-kit kinase enzyme. The class given is biochemical. The protocol: C-kit-Homogeneous Time Resolved Fluorescent (HTRF) Kinase Assay:
The purpose of this assay is to measure the inhibition of c-kit enzyme activity (autophosphorylation and phosphorylation of substrate) by small molecule test compounds. The c-kit HTRF assay begins with c-kit-catalyzed phosphorylation of biotinylated peptide Her-2 (N-GGMEDIYFEFMGGKKK-C) in the presence of ATP. The c-kit enzyme reaction is comprised of 1 μL of compound in 100% DMSO, 15 μL of 2× substrate mix (50 μM ATP and 2 μM biotinylated Her-2) and 15 μL of 2× c-kit (6.25 μM) (catalytic domain, N-terminal GST tagged, unphosphorylated) in 4 mM DTT all diluted in enzyme buffer (25 mM HEPES pH 7.5, 12.5 mM NaCl, 50 mM MgCl, 0.05% BSA). The reaction incubates for 90 min at RT. 160 Microliters of detection mixture containing 0.47 μg/mL steptavidin allophycocyanin and 29.7 pM europylated anti-phosphotyrosine Ab (PT66, Perkin Elmer) in HTRF buffer (100 mM Hepes pH 7.5, 100 mM NaCl, 0.1% BSA, 0.05% Tween 20) is then added to stop the reaction, by diluting out the enzyme as well as to enable quantitation of phosphorylated Her-2. After 3 h at RT, the detection reaction is read in a Packard Discovery™ (model BD1000) plate reader. The wells are excited with coherent […] light and the ratio of delayed ([…] post excitation) emissions at […] (native europium fluorescence) and 665 nm (europium fluorescence transferred to allophycocyanin—an index of substrate phosphorylation) is determined. The proportion of substrate phosphorylated in the kinase reaction in the presence of compound compared with that phosphorylated in the presence of DMSO vehicle alone (HI control) is calculated using the formula: % control (POC)=(cpd−average LO)/(average HI—average LO)*100. Data (consisting of POC and inhibitor concentration in μM) is fitted to a 4-parameter equation (y=A+((B−A)/(1+((x/C)^D))), where A is the minimum y (POC) value, B is the maximum y (POC), C is the x (compound concentration) at the point of inflection and D is the slope factor) using a Levenburg-Marquardt non-linear regression algorithm.
(In general: TR-FRET usually uses a lanthanide donor and a delayed reading to cut background.)
For orientation: IC50 means the concentration needed to halve the response being measured. For the compound `O=C(Nc1cncnc1)c1c(Cl)ccc2c(Nc3ccc(F)c(C(F)(F)F)c3)noc12` [Example 10, 6-chloro-3-(4-fluoro-3-(trifluoromethyl)phenylamino)-N-(pyrimidin-5-yl)benzo[d]isoxazole-7-carboxamide], the IC50 is not above 20 nM.

In the case of `O=C(Nc1cncnc1)c1c(Cl)ccc2c(Nc3cc(F)cc(C(F)(F)F)c3)noc12` [Example 12, 6-chloro-3-(3-fluoro-5-(trifluoromethyl)phenylamino)-N-(pyrimidin-5-yl)benzo[d]isoxazole-7-carboxamide], the IC50 was not above 20 nM.

`O=C(Nc1cncnc1)c1c(Cl)ccc2c(Nc3ccc(OC(F)(F)F)cc3)noc12` [Example 15, 6-chloro-N-(pyrimidin-5-yl)-3-(4-(trifluoromethoxy)phenylamino)benzo[d]isoxazole-7-carboxamide]: the IC50 was not above 20 nM.

As to `CCCc1ccc(Nc2noc3c(C(=O)Nc4cncnc4)c(Cl)ccc23)cc1` [Example 17, 6-chloro-3-(4-propylphenylamino)-N-(pyrimidin-5-yl)benzo[d]isoxazole-7-carboxamide], the 50% inhibitory concentration (IC50) is not above 20 nM.

A further assay concerns SCF or GM-CSF-stimulated UT-7 cells. As to the kind of experiment: SCF and GM-CSF stimulated UT7 proliferation/survival assay. The class given is cell-based. The following applies: Homo sapiens, UT7, 72 h, 3 days, ATP readout. The text has this:
SCF and GM-CSF Stimulated UT7 Proliferation/Survival Assay:
The purpose of this assay is to test the general anti-proliferative/cytotoxic effect of small molecule compounds on SCF or GM-CSF-stimulated UT-7 cells. Preventing SCF stimulated proliferation/survival is consistent with an on-mechanism effect whereas inhibition of GM-CSF driven proliferation/survival is indicative of off-target effects. UT-7 is a factor dependent human megakaryoblastic leukemia cell line that can be grown in either IL-3, GM-CSF, EPO or SCF (these cells have been confirmed to carry wild type c-kit receptor). Cells are maintained in growth media (IMDM, 10% HI-FBS, 1×PGS, 1 ng/mL GM-CSF). To measure SCF or GM-CSF-induced proliferation, cells are washed and re-suspended to 5e4c/mL in assay media (RPMI 1640/4% HI-FBS, 1×PGS) and plated at 50 uL/well for 2500c/well. Small molecule compounds are first diluted in 100% DMSO, then diluted 1:4 in RT assay media. 5 Microliters of 11×SCF (55 ng/mL) or 11×GM-CSF (11 ng/mL) in assay media plus 1 μL of diluted drug are added to the cell plates. The treated cells are incubated in a 37° C. humidified incubator with 5% CO2 for 3 days. The amount of ATP is then measured as a surrogate marker for cell viability. This is accomplished by adding 50 μL of Perkin Elmer ATP 1 step reagent (as per instructed in the reagent manual, Cat. No. 6016739), incubating at RT for 15 min and reading the luminescence with a Perkin Elmer Topcount NXT™HTS (model c384) plate reader. The amount of SCF or GM-CSF stimulated viable cells in the presence of compound compared with in the presence of vehicle alone (HI control) is calculated using the formula: % control (POC)=(cpd−average LO)/(average HI−average LO)*100. Data (consisting of POC and inhibitor concentration in μM) is fitted to a 4-parameter equation (y=A+((B−A)/(1+((x/C)^D))), where A is the minimum y (POC) value, B is the maximum y (POC), C is the x (cpd concentration) at the point of inflection and D is the slope factor) using a Levenburg-Marquardt non-linear regression algorithm.
Regarding `O=C(Nc1cncnc1)c1c(Cl)ccc2c(Nc3ccc(C(F)(F)F)cc3)noc12` [Example 5, 6-chloro-N-(pyrimidin-5-yl)-3-(4-(trifluoromethyl)phenylamino)benzo[d]isoxazole-7-carboxamide], the IC50 was not above 20 nM.

`CCCc1ccc(Nc2noc3c(C(=O)Nc4cncnc4)c(Cl)ccc23)cc1` [Example 17, 6-chloro-3-(4-propylphenylamino)-N-(pyrimidin-5-yl)benzo[d]isoxazole-7-carboxamide] had an IC50 not above 20 nM.

For `CCCCc1ccc(Nc2noc3c(C(=O)Nc4cncnc4)c(Cl)ccc23)cc1` [Example 18, 3-(4-butylphenylamino)-6-chloro-N-(pyrimidin-5-yl)benzo[d]isoxazole-7-carboxamide], the IC50 was not above 20 nM.

The values above are taken from US7872128B2, “Benzisoxazole and isoxazolo-pyridine compounds and method of use” (Amgen Inc., priority 2006, dated 2011).
